Assay results taken from patent US20210046094A1, “COMPOSITIONS AND METHODS FOR TREATING PAIN” (THE UNITED STATES GOVERNMENT AS REPRESENTED BY THE …, priority 2018, published 2021).
Entries after “also recorded” stand apart in the source; their conditions may differ.

Experiments:
[1] = system: experimental autoimmune encephalomyelitis; settings: cited from earlier work
[2] = infusion of an appropriate dose of injectable glibenclamide, non-diabetics; below hypoglycemic threshold; cited from earlier work
[3] = system: pCaMKII; test: Astrocytic pCaMKII post-PNI (immunolabeling); format: in vivo, mouse; settings: versus vehicle, n=3/group
[4] = system: GFAP or SUR1; test: Intrathecal infusion in uninjured, naive mouse: GFAP and SUR1 expression; format: in vivo
Excerpt: Spinal cord-specific inhibition or downregulation of SUR1 in central glia. […] The anesthetized mouse is mounted in a stereotaxic apparatus, hair is clipped from the dorsal thoracolumbar region, and the skin is prepped with Betadine solution. Using microscopic visualization, a midline incision is made, the paraspinal muscles are dissected off of the spinous processes and laminae. The spinous processes of L6-S1 are removed using a high speed surgical drill, and the dura between them is punctured using a 27-g needle. The infusion cannula of a Brain infusion kit (30 gauge cannula; Brain Infusion kit 3) is advanced stereotactically 1 mm into the thecal sac and is secured to the spine with cement.

[5] = system: mice with peripheral nerve injury (PNI) by sciatic nerve cuffing; test: Sciatic nerve cuff model: thermal hyperalgesia (Hargreaves method); format: in vivo, mouse; settings: adult male mice; intrathecal at lumbar 5, 5 ng/hour ×14 days from day +15; tested day +28
Protocol: THERMAL […] is assessed using the Hargreaves method, using a Hargreaves-type apparatus (Ugo Basile Plantar Test Instrument; Stoelting). An unrestrained animal is placed in a Perspex enclosure on the top of glass pane. An infrared generator placed below glass pane is aimed at the plantar surface of the hind paw and the time to withdrawal is recorded automatically via an optic sensor, avoiding experimental bias. Paw-withdrawal latency is calculated as the mean of 3-5 different measurements taken at 15 min intervals. […] On day 0, all mice underwent unilateral sciatic nerve cuffing, in which a 2 mm long section of pre-split PE-20 tubing is placed around the right sciatic nerve under sterile conditions (Yalcin et al., The sciatic nerve cuffing model of neuropathic pain in mice, J Vis Exp, PMID 25078668 (2014)).

[6] = administered via transdermal skin patch, preclinical; cited from earlier work
[7] = system: IL-6; test: Quantitative immunohistochemistry of ipsilateral dorsal horn astrocytes after PNI: IL-6; format: in vivo, mouse
Excerpt: (§1) Tissue analysis. Spinal cords are perfusion-fixed (4% PFA), cryoprotected and cryosectioned coronally (7 μm). The dorsal horns of L3-4, which innervates the plantar surface of the mouse hindpaw (Rigaud et al., Species and strain differences in rodent sciatic nerve anatomy: implications for studies of neuropathic pain, Pain, 136:188-201, PMID: 18316160 (2008)), are examined for markers of astrocyte activation (GFAP), Sur1-Trpm4 and IL-6, as well as the chemokines CCL2 and CXCL1. […]
(§2) Tissue analysis. […] The DRG and dorsal horns of L3-4, which innervate the plantar surface of the hindpaw (Rigaud et al., Species and strain differences in rodent sciatic nerve anatomy: implications for studies of neuropathic pain, Pain, 136:188-201, PMID 18316160 (2008)), are examined to quantify changes in, and the time course of those changes, for markers of astrocyte activation (GFAP), microglia/macrophage activation (Iba1, CD68), SUR1-TRPM4, IL-6, the chemokines, CCL2 and CXCL1 and their cognate receptors, CCR2 and CXCR2. Expression of these markers will be quantitatively compared in the different treatment groups using immunohistochemistry and in situ hybridization with cell-specific markers (GFAP, NeuN, Iba1, CD45). Quantitative comparisons will be validated using immunoblot and qPCR. […]

[8] = Normal mechanical or thermal sensitivity thresholds (non-sensitized condition); format: in vivo; settings: non-sensitized condition (not shown)
[9] = system: mice with peripheral nerve injury (PNI) by sciatic nerve cuffing; test: Sciatic nerve cuff model: cold/thermal allodynia (acetone); format: in vivo, mouse; settings: WT mice
Protocol: (§3) Sciatic nerve cuff model of neuropathic pain (Valcin et al. The sciatic nerve cuffing model of neuropathic pain in mice, J Vis Exp, PMID: 25078668 (2014)). Surgeries are performed under ketamine/xylazine anesthesia using aseptic techniques. The common branch of the right sciatic nerve is dissected and a 2 mm long section of pre-split PE-20 tubing is placed around it. Shams undergo the same surgery without cuffing.
(§4) Cold allodynia is assessed using acetone. A 10 μL volume of acetone is propelled via air burst from a 200 μL pipette onto the mid-plantar surface of the hind paw without touching the skin. Time spent elevating/licking/biting/shaking the stimulated paw, up to 15 sec, is measured with a stop watch. Each paw is stimulated 5×, allowing 5 min to elapse between successive paw stimulations.
as §4, with “THERMAL ALLODYNIA” for “Cold allodynia”, “acetone (Carey et al., Inflammatory and Neuropathic Nociception is Preserved in GPR55 Knockout Mice, Sci Rep, 7:944, PMID 28428628 (2017)).” for “acetone.”

[10] = system: mice with peripheral nerve injury (PNI) by sciatic nerve cuffing; test: Sciatic nerve cuff model: anxiety- and depression-like behaviors (open field, elevated plus maze, tail suspension); format: in vivo, mouse; settings: WT mice; 10 μg/day intraperitoneal starting on day 21 after PNI
Protocol: ANXIETY-LIKE and DEPRESSION-LIKE BEHAVIORS are assessed only one time, they are administered during the 3 days preceding euthanasia, and the order in which tests are applied is from least stressful to more stressful (as listed below). We follow standard protocols, fully described in Yalcin et al (Yalcin et al., A time-dependent history of mood disorders in a murine model of neuropathic pain, Biol Psychiatry, 70:946-53, PMID 21890110 (2011)). Open field testing is employed for measuring locomotor activity and willingness to explore in mice. A computerized tracking system (ANY-Maze; Stoelting Co.) records animal movements and calculates speed, distance and other parameters. Time spent exploring the center of the open field is inversely related to anxiety. Elevated Plus Maze (Colbourn Instruments). Rodents naturally tend to explore novel environments, but open, well lit, elevated areas are perceived as aversive. This test is widely used in rodent models of anxiety. Tail suspension test (Harvard Apparatus), which measures immobility time, as well as energy and power in motion, is employed as a measure of depression-like behavior in rodents.

[11] = system: CXCL1; test: Quantitative immunohistochemistry of ipsilateral dorsal horn astrocytes after PNI: CXCL1; format: in vivo, mouse
Excerpt: as §1, §2

[12] = system: CCL2; test: Quantitative immunohistochemistry of ipsilateral dorsal horn astrocytes after PNI: CCL2; format: in vivo, mouse
Excerpt: as §1, §2

[13] = system: mice with peripheral nerve injury (PNI) by sciatic nerve cuffing; test: Sciatic nerve cuff model of neuropathic pain: mechanical allodynia (von Frey filaments); format: in vivo, mouse
Excerpt: WT mice underwent unilateral PNI by sciatic nerve cuffing, a widely accepted model of neuropathic pain in mice (Valcin et al. The sciatic nerve cuffing model of neuropathic pain in mice, J Vis Exp, PMID: 25078668 (2014)). Sciatic nerve cuffing reliably induces signs of chronic pain, including sustained mechanical and thermal allodynia. In this model, mechanical allodynia assessed using von Frey filaments develops within 1 week, and is sustained thereafter.
as §3
Mechanical hypersensitivity. The threshold for ipsi- and contralateral hindpaw withdrawal is determined using von Frey filaments (Chaplan et al., Quantitative assessment of tactile allodynia in the rat paw, J Neurosci Methods, 53:55-63, PMID: 7990513(1994)).Mice are placed in clear Plexiglas boxes on an elevated mesh screen.
Calibrated von Frey filaments are applied to the plantar surface of each hindpaw (0.16-15 gm). The “up-down method” (Chaplan et al., Quantitative assessment of tactile allodynia in the rat paw, J Neurosci Methods, 53:55-63, PMID: 7990513(1994)) is used to determine the withdrawal threshold.
MECHANICAL ALLODYNIA. The threshold for ipsi- and contralateral hindpaw withdrawal is determined using von Frey filaments. von Frey filaments are applied to the plantar surface of each hindpaw (0.16-4 gm). The “up-down method (Chaplan et al., Quantitative assessment of tactile allodynia in the rat paw, J Neurosci Methods, 53:55-63, PMID 7990513 (1994))” is used to determine the withdrawal threshold, as in our previous studies (Masri et al., Zona incerta: a role in central pain, J Neurophysiol, 102:181-91, PMID 19403748 (2009); Whitt et al., Pathological activity in mediodorsal thalamus of rats with spinal cord injury pain, J Neurosci, 33:3915-26, PMID 23447602 (2013)). Alternatively, the withdrawal threshold is determined using the Hugo Basile Dynamic Plantar Aesthesiometer (Stoelting).
On day 0, all mice underwent unilateral sciatic nerve cuffing, in which a 2 mm long section of pre-split PE-20 tubing is placed around the right sciatic nerve under sterile conditions (Yalcin et al., The sciatic nerve cuffing model of neuropathic pain in mice, J Vis Exp, PMID 25078668 (2014)).

[14] = Example 1 mice (FIG. 2D), compared to vehicle-treated controls
[15] = mice from FIG. 10 (10 μg/day IP from day 21), tissues at day 49 (FIG. 6D)
[16] = WT mice, 10 μg/day intraperitoneal starting on day 21 after PNI

COc1ccc(Cl)cc1C(=O)NCCc1ccc(S(=O)(=O)NC(=O)NC2CCCCC2)cc1 [glibenclamide]
entry into spinal cord tissues ([1]; CNS inflammatory condition (EAE)): readily enters spinal cord tissues
inflammation ([1]; EAE spinal cord): ameliorates inflammation
serum levels [2]: < 45 ng/mL
astrocytic pCaMKII [3]: increases
upregulation of GFAP or SUR1 [4]: does not upregulate GFAP or SUR1
thermal hyperalgesia [5]: completely reversed
plasma levels [6]: steady plasma levels of drug that can be maintained below the hypoglycemic threshold
IL-6 in ipsilateral dorsal horn astrocytes [7, 14]: significant reduction
IL-6 in ipsilateral dorsal horn astrocytes [7, 15]: significant reductions
normal mechanical sensitivity thresholds [8]: does not modify
normal thermal sensitivity thresholds [8]: does not modify
cold allodynia ([9]; 10 μg IP loading dose plus 40 ng/hr subcutaneous via mini-osmotic pump ×2 weeks, shortly after PNI): significant blunting
thermal allodynia ([9]; 10 μg/day intraperitoneal starting on day 21 after PNI): significantly ameliorated
anxiety behaviors (open field and elevated plus maze) [10]: significantly ameliorated
depression-like behaviors (tail suspension) [10]: significantly ameliorated
CXCL1 in ipsilateral dorsal horn astrocytes [11, 14]: significant reduction
CXCL1 in ipsilateral dorsal horn astrocytes [11, 15]: significant reductions
CCL2 in ipsilateral dorsal horn astrocytes [12, 14]: significant reduction
CCL2 in ipsilateral dorsal horn astrocytes [12, 15]: significant reductions
mechanical allodynia ([13]; WT mice, 10 μg IP loading dose plus 40 ng/hr subcutaneous via mini-osmotic pump ×2 weeks, shortly after PNI): significant blunting
duration of drug treatment required for complete reversal of mechanical allodynia [13, 16]: 2-3 weeks
mechanical allodynia [13, 16]: significantly ameliorated; also recorded: gradual but complete reversal
allodynia symptoms (mechanical allodynia, FIG. 3C) ([13]; WT mice, treatment beginning on day 18 after PNI, after allodynia was well established): significant reversal
mechanical allodynia ([13]; adult male mice, intrathecal at lumbar 5, 5 ng/hour ×14 days from day +15, tested day +28): completely reversed
